US8247211B2, “Glycopeptide antibiotics” (American Cyanamid Company, priority 2001, dated 2012)
In brackets after ≈: the same amount, converted by molar mass.

Experiments:
[1] = test system: Streptococcus sp.; experiment: In vitro antibacterial evaluation: minimum inhibitory concentration (MIC), broth dilution method; type: cell-based; conditions: broth dilution, 5×10^5 CFU/mL, 18 hours at 35° C.
Outline: (§1)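 Using Muller-Hinton II […] and an inoculum of 5×10^5 CFU/mL, antibiotic dilutions from 64 down to 0.06 μg/mL were tested following NCCLS M7-A2. The MIC is the lowest concentration inhibiting growth, including in methicillin-, penicillin- or vancomycin-resistant clinical isolates.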

[2] = test system: Escherichia coli; experiment: as above; type: cell-based; conditions: 5×10^5 CFU/mL, 18 hours at 35° C.
Outline: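 NCCLS M7-A2 broth dilution with Mueller-Hinton II, testing 64-0.06 μg/mL antibiotic against 5×10^5 CFU/mL inocula. Test strains include recent methicillin-, penicillin- or vancomycin-resistant clinical isolates. MIC is the lowest concentration preventing growth.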

[3] = test system: Enterococcus sp.; experiment: as above; type: cell-based; conditions: broth dilution, 5×10^5 CFU/mL, 18 hours at 35° C.
Outline: as §1

[4] = test system: Staphylococcus sp.; experiment: as above; type: cell-based; conditions: for MIC Staphylococcus aureus (ATCC 29213): strain ATCC 29213; for MIC Staphylococcus aureus (GC 1131): strain GC 1131; for MIC Staphylococcus aureus (GC 3051): strain GC 3051; for MIC Staphylococcus aureus (GC 3053): strain GC 3053; for MIC Staphylococcus aureus (GC 4541): strain GC 4541; for MIC Staphylococcus aureus (GC 4542): strain GC 4542; for MIC Staphylococcus aureus-SMITH (GC 4543): strain GC 4543; for MIC Staphylococcus aureus (GC 4544): strain GC 4544; for MIC Staphylococcus aureus (GC 4545): strain GC 4545; for MIC Staphylococcus haemolyticus (GC 4546): strain GC 4546; for MIC Coagulase Negative Staphylococcus (GC 4547): strain GC 4547; for MIC Coagulase Negative Staphylococcus (GC 4548): strain GC 4548; for MIC Coagulase Negative Staphylococcus (GC 4549): strain GC 4549; for MIC Coagulase Negative Staphylococcus (GC 4551): strain GC 4551; for MIC Coagulase Negative Staphylococcus (GC 6257): strain GC 6257
Outline: as §1

[5] = test system: Enterococcus faecalis (GC 6189), vancomycin resistant strain; experiment: Acute lethal infection in mice (ED50); type: in vivo; conditions: female CD-1 mice, intraperitoneal challenge, intravenous dose 30 min. after infection, 7 day survival ratios
Outline: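 Female CD-1 mice challenged intraperitoneally with a bacterial dose lethal to untreated controls within 24-48 h. Compound given intravenously in saline or 5% dextrose 30 min post-infection, five mice per dose; ED50 from 7-day survival pooled over 3 tests.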

[6] = broth dilution, 18 hours at 35° C.

SMILES: CCC(CC)C1OCC2OC(OC3C(CO)OC(Oc4ccc(CC5NC(=O)C(C(C)c6ccccc6)NC(=O)CNC(=O)C(CO)NC(=O)C(C(O)C6CNC(=N)N6C6OC(CO)C(O)C(O)C6O)NC(=O)C(C(O)C6CNC(=N)N6)NC5=O)cc4)C(O)C3O)C(O)C(O)C2O1 (stereo not drawn) [Example 116, Cyclo[glycyl-β-methylphenylalanyl-O-[4-O-[4,6-O-(2-ethylbutylidene)hexopyranosyl]-hexopyranosyl]tyrosyl-3-(2-iminoimidazolidin-4-yl)seryl-3-(3-hexopyranosyl-2-iminoimidazolidin-4-yl)serylseryl]]
- MIC Streptococcus agalactiae (GC 4564) [1]: 0.25 µg/mL (≈ 0.181 µM)
- MIC Streptococcus pneumoniae (GC 1894) [1]: <0.06 µg/mL
- MIC Streptococcus pneumoniae (GC 4565) [1]: <0.06 µg/mL
- MIC Streptococcus pneumonine (ATCC 6301) [1]: <0.06 µg/mL
- MIC Streptococcus pyogenes (GC 4563) [1]: 0.25 µg/mL (≈ 0.181 µM)
- MIC Escherichia coli (ATCC 25922) [2]: 32 µg/mL (≈ 23.2 µM)
- MIC Escherichia coli (GC 4559) [2]: 64 µg/mL (≈ 46.5 µM)
- MIC Escherichia coli (GC 4560) [2]: 1 µg/mL (≈ 0.726 µM)
- MIC Enterococccus avium (GC 4558) [3]: 2 µg/mL (≈ 1.45 µM)
- MIC Enterococccus faecalis (ATCC 29212) [3]: 2 µg/mL (≈ 1.45 µM)
- MIC Enterococccus faecalis (GC 2691) [3]: 2 µg/mL (≈ 1.45 µM)
- MIC Enterococccus faecalis (GC 3059) [3]: 2 µg/mL (≈ 1.45 µM)
- MIC Enterococccus faecalis (GC 4552) [3]: 2 µg/mL (≈ 1.45 µM)
- MIC Enterococccus faecalis (GC 4553) [3]: 2 µg/mL (≈ 1.45 µM)
- MIC Enterococccus faecalis (GC 4554) [3]: 2 µg/mL (≈ 1.45 µM)
- MIC Enterococccus faecalis (GC 6189) [3]: 2 µg/mL (≈ 1.45 µM)
- MIC Enterococccus faecium (GC 2243) [3]: 2 µg/mL (≈ 1.45 µM)
- MIC Enterococccus faecium (GC 4556) [3]: 2 µg/mL (≈ 1.45 µM)
- MIC Enterococccus faecium (GC 4557) [3]: 2 µg/mL (≈ 1.45 µM)
- MIC Enterococcus faecalis (GC 2242) [3]: 2 µg/mL (≈ 1.45 µM)
- MIC Staphylococcus aureus (ATCC 29213) [4]: 1 µg/mL (≈ 0.726 µM)
- MIC Staphylococcus aureus (ATCC 29213) [4, 6]: 1 µg/mL (≈ 0.726 µM)
- MIC Staphylococcus aureus (GC 1131) [4]: 1 µg/mL (≈ 0.726 µM)
- MIC Staphylococcus aureus (GC 1131) [4, 6]: 1 µg/mL (≈ 0.726 µM)
- MIC Staphylococcus aureus (GC 3051) [4]: 1 µg/mL (≈ 0.726 µM)
- MIC Staphylococcus aureus (GC 3051) [4, 6]: 1 µg/mL (≈ 0.726 µM)
- MIC Staphylococcus aureus (GC 3053) [4]: 1 µg/mL (≈ 0.726 µM)
- MIC Staphylococcus aureus (GC 3053) [4, 6]: 1 µg/mL (≈ 0.726 µM)
- MIC Staphylococcus aureus (GC 4541) [4]: 1 µg/mL (≈ 0.726 µM)
- MIC Staphylococcus aureus (GC 4541) [4, 6]: 1 µg/mL (≈ 0.726 µM)
- MIC Staphylococcus aureus (GC 4542) [4]: 0.5 µg/mL (≈ 0.363 µM)
- MIC Staphylococcus aureus (GC 4542) [4, 6]: 0.5 µg/mL (≈ 0.363 µM)
- MIC Staphylococcus aureus-SMITH (GC 4543) ([4]; 18 hours at 35° C.): 1 µg/mL (≈ 0.726 µM)
- MIC Staphylococcus aureus-SMITH (GC 4543) [4, 6]: 1 µg/mL (≈ 0.726 µM)
- MIC Staphylococcus aureus (GC 4544) [4]: 1 µg/mL (≈ 0.726 µM)
- MIC Staphylococcus aureus (GC 4544) [4, 6]: 1 µg/mL (≈ 0.726 µM)
- MIC Staphylococcus aureus (GC 4545) [4]: 1 µg/mL (≈ 0.726 µM)
- MIC Staphylococcus aureus (GC 4545) [4, 6]: 1 µg/mL (≈ 0.726 µM)
- MIC Staphylococcus haemolyticus (GC 4546) [4]: 0.5 µg/mL (≈ 0.363 µM)
- MIC Staphylococcus haemolyticus (GC 4546) [4, 6]: 0.5 µg/mL (≈ 0.363 µM)
- MIC Coagulase Negative Staphylococcus (GC 4547) [4]: 1 µg/mL (≈ 0.726 µM)
- MIC Coagulase Negative Staphylococcus (GC 4547) [4, 6]: 1 µg/mL (≈ 0.726 µM)
- MIC Coagulase Negative Staphylococcus (GC 4548) [4]: 1 µg/mL (≈ 0.726 µM)
- MIC Coagulase Negative Staphylococcus (GC 4548) [4, 6]: 1 µg/mL (≈ 0.726 µM)
- MIC Coagulase Negative Staphylococcus (GC 4549) [4]: 1 µg/mL (≈ 0.726 µM)
- MIC Coagulase Negative Staphylococcus (GC 4549) [4, 6]: 1 µg/mL (≈ 0.726 µM)
- MIC Coagulase Negative Staphylococcus (GC 4551) [4]: 1 µg/mL (≈ 0.726 µM)
- MIC Coagulase Negative Staphylococcus (GC 4551) [4, 6]: 1 µg/mL (≈ 0.726 µM)
- MIC Coagulase Negative Staphylococcus (GC 6257) [4]: 0.5 µg/mL (≈ 0.363 µM)
- MIC Coagulase Negative Staphylococcus (GC 6257) [4, 6]: 0.5 µg/mL (≈ 0.363 µM)
- median effective dose (ED50), Enterococcus faecalis (GC 6189) [5]: 0.46 mg/kg

SMILES: CC(c1ccccc1)C1NC(=O)CNC(=O)C(CO)NC(=O)C(C(O)C2CNC(=N)N2C2OC(CO)C(O)C(O)C2O)NC(=O)C(C(O)C2CNC(=N)N2)NC(=O)C(Cc2ccc(OC3OC(CO)C(OC4OC5COC(C6CCCC6)OC5C(O)C4O)C(O)C3O)cc2)NC1=O (stereo not drawn) [Example 117, Cyclo[glycyl-β-methylphenylalanyl-O-[4-O-[4,6-O-(cyclopentylethylene)hexopyranosyl]-hexopyranosyl]tyrosyl-3-(2-iminoimidazolidin-4-yl)seryl-3-(3-hexopyranosyl-2-iminoimidazolidin-4-yl)serylseryl]]
- MIC Streptococcus agalactiae (GC 4564) [1]: 0.25 µg/mL (≈ 0.182 µM)
- MIC Streptococcus pneumoniae (GC 1894) [1]: <0.06 µg/mL
- MIC Streptococcus pneumoniae (GC 4565) [1]: 0.12 µg/mL (≈ 0.0872 µM)
- MIC Streptococcus pneumonine (ATCC 6301) [1]: <0.06 µg/mL
- MIC Streptococcus pyogenes (GC 4563) [1]: 0.25 µg/mL (≈ 0.182 µM)
- MIC Escherichia coli (ATCC 25922) [2]: 64 µg/mL (≈ 46.5 µM)
- MIC Escherichia coli (GC 4559) [2]: 32 µg/mL (≈ 23.3 µM)
- MIC Escherichia coli (GC 4560) [2]: 1 µg/mL (≈ 0.727 µM)
- MIC Enterococccus avium (GC 4558) [3]: 4 µg/mL (≈ 2.91 µM)
- MIC Enterococccus faecalis (ATCC 29212) [3]: 2 µg/mL (≈ 1.45 µM)
- MIC Enterococccus faecalis (GC 2691) [3]: 4 µg/mL (≈ 2.91 µM)
- MIC Enterococccus faecalis (GC 3059) [3]: 4 µg/mL (≈ 2.91 µM)
- MIC Enterococccus faecalis (GC 4552) [3]: 4 µg/mL (≈ 2.91 µM)
- MIC Enterococccus faecalis (GC 4553) [3]: 4 µg/mL (≈ 2.91 µM)
- MIC Enterococccus faecalis (GC 4554) [3]: 2 µg/mL (≈ 1.45 µM)
- MIC Enterococccus faecalis (GC 6189) [3]: 2 µg/mL (≈ 1.45 µM)
- MIC Enterococccus faecium (GC 2243) [3]: 2 µg/mL (≈ 1.45 µM)
- MIC Enterococccus faecium (GC 4556) [3]: 2 µg/mL (≈ 1.45 µM)
- MIC Enterococccus faecium (GC 4557) [3]: 2 µg/mL (≈ 1.45 µM)
- MIC Enterococcus faecalis (GC 2242) [3]: 2 µg/mL (≈ 1.45 µM)
- MIC Staphylococcus aureus (ATCC 29213) [4]: 1 µg/mL (≈ 0.727 µM)
- MIC Staphylococcus aureus (ATCC 29213) [4, 6]: 1 µg/mL (≈ 0.727 µM)
- MIC Staphylococcus aureus (GC 1131) [4]: 2 µg/mL (≈ 1.45 µM)
- MIC Staphylococcus aureus (GC 1131) [4, 6]: 2 µg/mL (≈ 1.45 µM)
- MIC Staphylococcus aureus (GC 3051) [4]: 1 µg/mL (≈ 0.727 µM)
- MIC Staphylococcus aureus (GC 3051) [4, 6]: 1 µg/mL (≈ 0.727 µM)
- MIC Staphylococcus aureus (GC 3053) [4]: 2 µg/mL (≈ 1.45 µM)
- MIC Staphylococcus aureus (GC 3053) [4, 6]: 2 µg/mL (≈ 1.45 µM)
- MIC Staphylococcus aureus (GC 4541) [4]: 1 µg/mL (≈ 0.727 µM)
- MIC Staphylococcus aureus (GC 4541) [4, 6]: 1 µg/mL (≈ 0.727 µM)
- MIC Staphylococcus aureus (GC 4542) [4]: 1 µg/mL (≈ 0.727 µM)
- MIC Staphylococcus aureus (GC 4542) [4, 6]: 1 µg/mL (≈ 0.727 µM)
- MIC Staphylococcus aureus-SMITH (GC 4543) ([4]; 18 hours at 35° C.): 1 µg/mL (≈ 0.727 µM)
- MIC Staphylococcus aureus-SMITH (GC 4543) [4, 6]: 1 µg/mL (≈ 0.727 µM)
- MIC Staphylococcus aureus (GC 4544) [4]: 2 µg/mL (≈ 1.45 µM)
- MIC Staphylococcus aureus (GC 4544) [4, 6]: 2 µg/mL (≈ 1.45 µM)
- MIC Staphylococcus aureus (GC 4545) [4]: 1 µg/mL (≈ 0.727 µM)
- MIC Staphylococcus aureus (GC 4545) [4, 6]: 1 µg/mL (≈ 0.727 µM)
- MIC Staphylococcus haemolyticus (GC 4546) [4]: 1 µg/mL (≈ 0.727 µM)
- MIC Staphylococcus haemolyticus (GC 4546) [4, 6]: 1 µg/mL (≈ 0.727 µM)
- MIC Coagulase Negative Staphylococcus (GC 4547) [4]: 1 µg/mL (≈ 0.727 µM)
- MIC Coagulase Negative Staphylococcus (GC 4547) [4, 6]: 1 µg/mL (≈ 0.727 µM)
- MIC Coagulase Negative Staphylococcus (GC 4548) [4]: 1 µg/mL (≈ 0.727 µM)
- MIC Coagulase Negative Staphylococcus (GC 4548) [4, 6]: 1 µg/mL (≈ 0.727 µM)
- MIC Coagulase Negative Staphylococcus (GC 4549) [4]: 1 µg/mL (≈ 0.727 µM)
- MIC Coagulase Negative Staphylococcus (GC 4549) [4, 6]: 1 µg/mL (≈ 0.727 µM)
- MIC Coagulase Negative Staphylococcus (GC 4551) [4]: 2 µg/mL (≈ 1.45 µM)
- MIC Coagulase Negative Staphylococcus (GC 4551) [4, 6]: 2 µg/mL (≈ 1.45 µM)
- MIC Coagulase Negative Staphylococcus (GC 6257) [4]: 0.5 µg/mL (≈ 0.364 µM)
- MIC Coagulase Negative Staphylococcus (GC 6257) [4, 6]: 0.5 µg/mL (≈ 0.364 µM)
- median effective dose (ED50), Enterococcus faecalis (GC 6189) [5]: 0.38 mg/kg
